From US9499446B2, “Zinc-essential for flora and fauna” (priority 2012, dated 2016)

Columns and labels:
Wheat cultivar PBW 550 = assay: Experiment I: field experiments in wheat under different Zn treatments (PAU research farm and farmer's field, Jattpur); assay type: in vivo; conditions: soil application 62.5 kg ha^−1
Procedure: Field Experiments in wheat was carried out using the composition of the present invention for two consecutive years in Punjab Agriculture University (PAU) Research Farm and Framer's field (Jattpur) loamy soil. Wheat cultivar PBW 550 seeds were sown during the first week of November. Two Zn chelates at different concentrations at two stages of wheat plant growth were applied through foliar application. In another treatment, Zn was added to the soil as basal dose at 62.5 kg ha^−1 using ZnSO4.7H2O salt. The first application of Zn chelate spray was done at maximum tillering stage and the second application was made at panicle initiation stage. Various parameters like plant height, tillers and 1000-grain weight were noted. Additionally during maturity in the month of April, the wheat grain and straw yield were noted.
The physio-chemical analyses of the soil before the start of the experiment was carried out at the two locations were the experiments were to be carried.
The plant parameters in wheat under different Zn treatments at PAU research farm and farmer's field are shown in Table 3 and Table 4 respectively and grain and straw yields in wheat under different Zn treatments at PAU research farm and farmer's field are shown in Table 5 and Table 6 respectively.

wheat crops = assay: Experiment II: field experiments in wheat, irrigated north-west plain zone of Rajasthan; assay type: in vivo; conditions: 24 kg ha^−1
Procedure: Field Experiments in wheat was carried out using the composition of the present invention in the soils of the irrigated north-west plain zone of Rajasthan. The soils of north-west plain zone are deficient in zinc and poor growth or deficiency symptoms appear on the wheat crops. Two foliar sprays were applied. First, during the vegetative growth stage on early appearance of the deficiency symptoms and the second foliar spray during the flag leaf initiation stage of the wheat crop. [table] The soil of the irrigated north-west plain zone of Rajasthan has a pH, of 8.27 and electric conductivity was 0.20 dS^−m. […] The diethylene triamine pentaacetic acid (DTPA) extractable zinc concentration in the soil was low.

[1] = PAU research farm, Rabi 2009-2010
[2] = PAU research farm, Rabi 2010-2011

Structure (SMILES): O.O.O.O.O.O.O.O=S(=O)([O-])[O-].[Zn+2] [ZnSO4•7H2O]
- 1000 grains weight (Wheat cultivar PBW 550; [1]): 38.4 g
- Grain yield (Wheat cultivar PBW 550; [1]): 52.5 q ha^−1
- Grain yield % increase over control (Wheat cultivar PBW 550; [1]): 10.8%
- Plant height (cm) (Wheat cultivar PBW 550; [1]): 76.7 cm
- Straw yield (Wheat cultivar PBW 550; [1]): 65.0 q ha^−1
- Straw yield % increase over control (Wheat cultivar PBW 550; [1]): 3.7%
- Tillers per square meter (Wheat cultivar PBW 550; [1]): 293
- 1000 grains weight (Wheat cultivar PBW 550; [2]): 38.7 g
- Grain yield (Wheat cultivar PBW 550; [2]): 54.4 q ha^−1
- Grain yield % increase over control (Wheat cultivar PBW 550; [2]): 13.3%
- Plant height (cm) (Wheat cultivar PBW 550; [2]): 97.69 cm
- Straw yield (Wheat cultivar PBW 550; [2]): 65.7 q ha^−1
- Straw yield % increase over control (Wheat cultivar PBW 550; [2]): 5.5%
- Tillers per square meter (Wheat cultivar PBW 550; [2]): 377
- 1000 grains weight (Wheat cultivar PBW 550; farmer's field, Rabi 2009-2010): 35.1 g
- Grain yield (Wheat cultivar PBW 550; farmer's field, Rabi 2009-2010): 46.7 q ha^−1
- Grain yield % increase over control (Wheat cultivar PBW 550; farmer's field, Rabi 2009-2010): 28.7%
- Plant height (cm) (Wheat cultivar PBW 550; farmer's field, Rabi 2009-2010): 76.6 cm
- Straw yield (Wheat cultivar PBW 550; farmer's field, Rabi 2009-2010): 55.3 q ha^−1
- Straw yield % increase over control (Wheat cultivar PBW 550; farmer's field, Rabi 2009-2010): 9.1%
- Tillers per square meter (Wheat cultivar PBW 550; farmer's field, Rabi 2009-2010): 272
- 1000 grains weight (Wheat cultivar PBW 550; farmer's field, Rabi 2010-2011): 34.3 g
- Grain yield (Wheat cultivar PBW 550; farmer's field, Rabi 2010-2011): 46.0 q ha^−1
- Grain yield % increase over control (Wheat cultivar PBW 550; farmer's field, Rabi 2010-2011): 28.5%
- Plant height (cm) (Wheat cultivar PBW 550; farmer's field, Rabi 2010-2011): 74.7 cm
- Straw yield (Wheat cultivar PBW 550; farmer's field, Rabi 2010-2011): 54.7 q ha^−1
- Straw yield % increase over control (Wheat cultivar PBW 550; farmer's field, Rabi 2010-2011): 20.8%
- Tillers per square meter (Wheat cultivar PBW 550; farmer's field, Rabi 2010-2011): 353

Structure (SMILES): O=S(=O)([O-])[O-].[Zn+2] [ZnSO4]
- 1000 Grain weight (wheat crops): 39.73 g
- Ear length (cm) (wheat crops): 10.18 cm
- No. of tillers m^−1 row length (wheat crops): 122
- Yield (tonne ha^−1) Grain (wheat crops): 4.57 tonne ha^−1
- Yield (tonne ha^−1) Straw (wheat crops): 6.61 tonne ha^−1
- Zn conc (wheat crops): 30.25 mg/kg
